Laboratory results as given in publication PMC12119672, “Development and evaluation of [^11C]DPA-813 and [^18F]DPA-814: novel TSPO PET tracers insensitive to human single nucleotide polymorphism rs6971” (European Journal of Nuclear Medicine and Molecular Imaging, 2025).
Several values for one entry are separate records, joined by “and”; a condition that tells them apart may be missing. Identical values can stand only once. Marks after values point to notes of the source that are not given here.

Tests used:
[1] = distribution coefficient; cited from earlier work
WT human TSPO = target: T1, WT human TSPO (Homo sapiens, UniProt P30536); assay: Competition radioligand binding vs [3H]PK 11195, membranes of transfected HEK-293T cells (WT TSPO); details: vs [3H]PK 11195 (10 nM), HEK-293T membranes, mean ± SEM; read-out: Ki WT hTSPO
T1 construct: expressed in transfected cells
T1 sequence (P30536 whole entry T147A): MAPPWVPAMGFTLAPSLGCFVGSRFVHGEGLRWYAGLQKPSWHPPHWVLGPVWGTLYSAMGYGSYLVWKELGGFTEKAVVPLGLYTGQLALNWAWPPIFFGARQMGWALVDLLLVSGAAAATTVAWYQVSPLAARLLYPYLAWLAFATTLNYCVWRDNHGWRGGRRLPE
Protocol: (§1) Binding affinities (Ki) to wild-type (WT) and A147T human TSPO were assessed using a previously published method. HEK-293T cells were stably transfected with WT and A147T TSPO. Membranes were isolated from each cell line using an Ultra-Turrax hand-held homogeniser. These cells have been previously validated as an in vitro model for low- and high-affinity TSPO binding. […] Non-specific binding was determined using a saturating concentration (1 µM) of non-tritiated PK 11195. This non-specific binding contributed less than 10% of total binding. Reactions were halted by filtering through a 96-well glass-fibre filter plate (Millipore), followed by eight washes with ice-cold 50 mM Tris HCl. Microscint 0 was added to the plate and resultant radioactivity-related photons were collected by a Microbeta 2450 (PerkinElmer). Ki values were fit to a competition binding curve fit on non-specific binding-corrected data using GraphPad Prism 10.0 (GraphPad). Results are presented as mean ± standard error of the mean (SEM) from at least three independent experiments. Binding affinities (Ki) to rat TSPO were measured in duplicate by Eurofins Panlabs Discovery Services (assay #226700) (Supplementary Fig. 12). Single-dose (10 µM) off-target in vitro screening was performed in duplicate by Eurofins Panlabs Discovery Services (Supplementary Table 5).
(§2) In vitro binding affinities (Ki) for human TSPO were initially assessed using a competition radioligand assay against [^3H]PK 11195 in our well-characterised assay using membranes isolated from transfected HEK-293T cells overexpressing either WT or A147T TSPO [32]. This structure-activity relationship study will be reported in a separate publication. […] Data for DPA-713 and DPA-714 are included for comparison.

A147T human TSPO = target: T2, A147T human TSPO (Homo sapiens, UniProt P30536); assay: Competition radioligand binding vs [3H]PK 11195, membranes of transfected HEK-293T cells (A147T TSPO); details: vs [3H]PK 11195 (10 nM), HEK-293T membranes, mean ± SEM; read-out: Ki A147T hTSPO
T2 construct: expressed in transfected cells
T2 sequence (P30536 whole entry, stated change not applied): as the sequence (P30536 whole entry T147A) above, with A147T counted along it
Protocol: as §1, §2

[2] = Ex vivo biodistribution in wild-type rats; design: species or system rat; details: i.v.
Protocol: Wistar/RccHan (WIST) rats from Inotiv, the Netherlands, received intravenous injections via a tail vein catheter of either [^11C]DPA-813 (30–50 MBq) or [^18F]DPA-814 (20–30 MBq). The rats were euthanized at 5, 15, and 45 min post-injection (n = 4 per time point). Blood, heart, lungs, liver, spleen, kidney, urine, bone, brain, duodenum, small intestine, skin, and muscle were collected, weighed, and their radioactivity measured using a Wizard Gamma counter 1470 or 2480 (Wallac/PerkinElmer, Waltham, MA, USA). Entire organs were collected, except for larger organs like the liver and lungs, where only a portion was dissected. The radioactivity uptake in each organ was expressed as the percentage of the injected dose per gram of tissue (%ID/g).

[3] = test system: EAE rat model (spinal cord); assay: PET imaging in the EAE rat model; type: in vivo; details: dynamic PET 60 min, peak of clinical symptoms
TSPO in human MS tissues = assay: Autoradiography on genotyped human MS brain tissue (HAB, MAB, LAB); type: binding
Excerpt: Brain tissues from MS patients (n = 7) were used in this study and were obtained from the MS centre of the Amsterdam University Medical Centers (AUMC). For some patient material, several brain tissues were available. The MS centre received permission from the Ethical Committee of the AUMC (Amsterdam, The Netherlands) to perform autopsies for tissue use and access to medical records for research purposes. All patients and controls, or their next of kin, had given informed consent for autopsy and use of brain tissue for research purposes.
TSPO rs6971 SNP was determined with a Taqman assay (C_2512465_20, ThermoFisher Scientific, The Netherlands). DNA was isolated from human MS brain tissue cryosections using a QIAmp mini kit from Qiagen according to the manufacturer’s recommendation. The concentration of the isolated DNA was determined on a nanodrop (NanoVue Plus, Biochrom). DNA concentration ranged from 45 to 246 µg/mL. QPCR was performed on a QuantStudio (Applied Biosystems, The Netherlands). Synthetic DNA (300 bp) for the two TSPO SNP alleles, rs6971-A, and rs6971-G, was used as a control for the Taqman assay. DNA samples were diluted 1/100 in milliQ water, and 4.5 µL was used for the QPCR. Control DNA sequences were reconstituted in 10 ng/mL in milliQ water. The final QPCR solution contained 5 µL TaqPath proAmp master mix (ThermoFisher Scientific, The Netherlands), 0.5 µL Taqman SNP, and 4.5 µL DNA. Results of the Taqman assay are summarised in Supplementary Tables 4 and Supplementary Fig. 2.
Human MS tissue cryosections (20 μm) were mounted on glass slides, air-dried, and stored at − 80 °C until needed. Prior to use, the sections were washed three times in PBS for 5 min each, then dried under an airflow. […] For blocking experiments, tissue sections were co-incubated with PK 11195 (10 µM) and the tracer. After incubation, sections were washed for 90 s three times each in ice-cold PBS and then dipped in deionized water twice. The sections were air-dried and exposed to a phosphor screen BAS-IP SR 2025 (General Electric, Eindhoven, The Netherlands). Phosphor screens were subsequently imaged using a Typhoon FLA 7000 imager (General Electric, Eindhoven, The Netherlands), and signal intensity was quantified using ImageLab software (BioRad, Lunteren, The Netherlands).

[4] = Ex vivo metabolite analysis (plasma and brain) in wild-type rats; design: species or system rat; details: i.v.
Protocol: Metabolite analysis was conducted following the method outlined in a previous study. Wistar/RccHan (WIST) rats (Inotiv, the Netherlands) received intravenous injections of either [^11C]DPA-813 (30–50 MBq) or [^18F]DPA-814 (20–30 MBq). Rats were euthanized at 5, 15, and 45 min post-injection (n = 4 per time point). Plasma was separated from blood then processed through a C18 Sep-Pak (Waters, Milford, MA, USA). After washing with 3 mL of water to isolate the polar fraction, the non-polar fraction was eluted using 2 mL of methanol and 1 mL of water and subsequently analyzed by HPLC. The brain tissue was collected and homogenized in a mixture of MeCN and H2O (50/50, 4 mL) before centrifugation (5 min, 4000 rpm, 20 °C, Hettich Universal 32). The obtained supernatant was separated from the precipitate and analyzed via HPLC. Analytical HPLC was performed using a Dionex UltiMate 3000 HPLC system equipped with Chromeleon software (version 6.8), utilizing a Gemini C18 5-µm (10 × 250 mm) column (Phenomenex, Torrance, CA, USA). All fractions were assessed for radioactivity using a Wizard Gamma counter 1470 or 2480 (Wallac/PerkinElmer, Waltham, MA, USA).

rat TSPO = target: T3, rat TSPO (Rattus norvegicus, UniProt P16257); assay: Competitive binding to rat TSPO vs [3H]PK 11195 (Eurofins assay #226700, rat heart membranes); details: vs DPA-713 / DPA-714
T3 construct: Heart of male Wistar derived rats weighing 175 ± 25 g are used to prepare peripheral benzodiazepine membrane receptors [TSPO]; tissue Eurofins Panlabs Discovery Services assay #226700; host or cells: rat heart (male Wistar derived)
Protocol: as §1
Supplementary Figure 12 Dose-response curves and binding affinities of DPA-813 and DPA-814 showing competitive binding to rat TSPO vs [^3H]PK 11195. Method from Eurofins: Heart of male Wistar derived rats weighing 175 ± 25 g are used to prepare peripheral benzodiazepine membrane receptors [TSPO] in modified Tris-HCl buffer pH 7.5. A 0.25 mg aliquot is incubated with 0.3 nM [^3H]PK 11195 for 15 minutes at 25 °C. Non-specific binding is estimated in the presence of 100 μM Dipyridamole. Membranes are filtered and washed, the filters are then counted to determine [^3H]PK 11195 specifically bound.

Compound: CCN(CC)C(=O)Cc1c(-c2ccc(OC)cc2)nn2c(C)cc(C)nc12 [DPA-713]
- logD7.4 [1]: 2.4 ^b

Compound: CCN(CC)C(=O)Cc1c(-c2ccc(OCCF)cc2)nn2c(C)cc(C)nc12 [DPA-714, reference compound]
- Ki (WT human TSPO): 20.9 ± 5 nM
- logD7.4 [1]: 2.4 ^b
- Ki (A147T human TSPO): 260 ± 93.6 nM

Compound: Cc1cc(C)n2nc(-c3ccc(OCC[18F])cc3)c(CC(=O)N(C)c3ccccc3)c2n1 [[^18F]DPA-814]
- Biodistribution, Blood ([2]; 5 min post-injection): 0.41 ± 0.2 %ID/g
- Biodistribution, Bone ([2]; 5 min post-injection): 0.27±0.1 %ID/g
- Biodistribution, Brain ([2]; 5 min post-injection): 0.25 ± 0.03 %ID/g
- Biodistribution, Duodenum ([2]; 5 min post-injection): 1.44±0.1 %ID/g
- Biodistribution, Heart ([2]; 5 min post-injection): 3.31±0.3 %ID/g
- Biodistribution, Kidney ([2]; 5 min post-injection): 3.81±0.5 %ID/g
- Biodistribution, Liver ([2]; 5 min post-injection): 1.82±0.5 %ID/g
- Biodistribution, Lungs ([2]; 5 min post-injection): 21.91±1. %ID/g
- Biodistribution, Skin ([2]; 5 min post-injection): 0.09±0.0 %ID/g
- Biodistribution, Small intestine ([2]; 5 min post-injection): 0.92±0.1 %ID/g
- Biodistribution, Tail ([2]; 5 min post-injection): 6.89±9.8 %ID/g
- Biodistribution, Urine ([2]; 5 min post-injection): 0.01±0.0 %ID/g
- Biodistribution, muscle ([2]; 5 min post-injection): 0.05±0.0 %ID/g
- Biodistribution, spleen ([2]; 5 min post-injection): 3.00±0.6 %ID/g
- Biodistribution, Blood ([2]; 15 min post-injection): 0.31±0.1 %ID/g
- Biodistribution, Bone ([2]; 15 min post-injection): 0.29±0.1 %ID/g
- Biodistribution, Brain ([2]; 15 min post-injection): 0.28±0.0 %ID/g
- Biodistribution, Duodenum ([2]; 15 min post-injection): 1.71±0.2 %ID/g
- Biodistribution, Heart ([2]; 15 min post-injection): 4.39±0.2 %ID/g
- Biodistribution, Kidney ([2]; 15 min post-injection): 4.59±0.6 %ID/g
- Biodistribution, Liver ([2]; 15 min post-injection): 2.56 ± 0.2 %ID/g
- Biodistribution, Lungs ([2]; 15 min post-injection): 24.43±2. %ID/g
- Biodistribution, Skin ([2]; 15 min post-injection): 0.12±0.1 %ID/g
- Biodistribution, Small intestine ([2]; 15 min post-injection): 1.26±0.1 %ID/g
- Biodistribution, Tail ([2]; 15 min post-injection): 0.70±0.2 %ID/g
- Biodistribution, Urine ([2]; 15 min post-injection): 0.01±0.0 %ID/g
- Biodistribution, muscle ([2]; 15 min post-injection): 0.07±0.0 %ID/g
- Biodistribution, spleen ([2]; 15 min post-injection): 4.85±0.2 %ID/g
- Biodistribution, Blood ([2]; 45 min post-injection): 0.15 ± 0.01 %ID/g
- Biodistribution, Bone ([2]; 45 min post-injection): 0.22±0.0 %ID/g
- Biodistribution, Brain ([2]; 45 min post-injection): 0.20 ± 0.02 %ID/g
- Biodistribution, Duodenum ([2]; 45 min post-injection): 1.43±0.1 %ID/g
- Biodistribution, Heart ([2]; 45 min post-injection): 4.05±0.3 %ID/g
- Biodistribution, Kidney ([2]; 45 min post-injection): 4.10±0.2 %ID/g
- Biodistribution, Liver ([2]; 45 min post-injection): 1.97±0.4 %ID/g
- Biodistribution, Lungs ([2]; 45 min post-injection): 18.05±3. %ID/g
- Biodistribution, Skin ([2]; 45 min post-injection): 0.12±0.0 %ID/g
- Biodistribution, Small intestine ([2]; 45 min post-injection): 1.23±0.2 %ID/g
- Biodistribution, Tail ([2]; 45 min post-injection): 1.30±0.5 %ID/g
- Biodistribution, Urine ([2]; 45 min post-injection): 0.08±0.1 %ID/g
- Biodistribution, muscle ([2]; 45 min post-injection): 0.08±0.0 %ID/g
- Biodistribution, spleen ([2]; 45 min post-injection): 5.45±1.6 %ID/g
- higher uptake (AUC of time activity curve) in the spinal cord of EAE rats compared to CFA control [3]: 21%
- ratio of the binding quantifications [18F]DPA-814/[18F]DPA-714 (TSPO in human MS tissues; HAB human MS tissue): 0.9 ± 0.1
- ratio of the binding quantifications [18F]DPA-814/[18F]DPA-714 (TSPO in human MS tissues; LAB human MS tissue): 12.3 and 12
- ratio of the binding quantifications [18F]DPA-814/[18F]DPA-714 (TSPO in human MS tissues; MAB human MS tissue): 1.5 ± 0.2
- Brain, Parent (intact tracer) ([4]; 5 min post-injection): 99.5 ± 0.2%
- Plasma, Parent (Intact tracer) ([4]; 5 min post-injection): 88.1 ± 8.5%
- Brain, Parent (intact tracer) ([4]; 15 min post-injection): 99.5 ± 0.3%
- Plasma, Parent (Intact tracer) ([4]; 15 min post-injection): 89.4 ± 0.9%
- Brain, Parent (intact tracer) ([4]; 45 min post-injection): 99.3 ± 0.3%
- Plasma, Parent (Intact tracer) ([4]; 45 min post-injection): 79.1 ± 6.6% and 79%
- higher affinity to rat TSPO compared to the parent compound (rat TSPO): 35 fold
